Measured values: US9259402B2, “Compounds with (1 E, 6E)-1,7-bis-(3,4-dimethoxyphenyI)-4,4-disubstituted-hepta-1,6-diene-3,5-dione structural scaffold, their biological activity, and uses thereof” (AndroScience Corporation, priority 2007, dated 2016)
Substitutions are numbered along the chain they refer to. pIC50: −log10 of the molar value. Read-outs that look alike come from different tables or passages of the source. Blank lines part the entries; values can stand above or below the molecule they belong to.

What was measured:
[1] = molecular target: T1, Androgen Receptor (AR) protein expression (Homo sapiens, UniProt P10275, T878A); experiment: Western Blot analysis of AR protein expression in LNCaP cells; type: cell-based
T1 sequence (P10275 1-920 T878A): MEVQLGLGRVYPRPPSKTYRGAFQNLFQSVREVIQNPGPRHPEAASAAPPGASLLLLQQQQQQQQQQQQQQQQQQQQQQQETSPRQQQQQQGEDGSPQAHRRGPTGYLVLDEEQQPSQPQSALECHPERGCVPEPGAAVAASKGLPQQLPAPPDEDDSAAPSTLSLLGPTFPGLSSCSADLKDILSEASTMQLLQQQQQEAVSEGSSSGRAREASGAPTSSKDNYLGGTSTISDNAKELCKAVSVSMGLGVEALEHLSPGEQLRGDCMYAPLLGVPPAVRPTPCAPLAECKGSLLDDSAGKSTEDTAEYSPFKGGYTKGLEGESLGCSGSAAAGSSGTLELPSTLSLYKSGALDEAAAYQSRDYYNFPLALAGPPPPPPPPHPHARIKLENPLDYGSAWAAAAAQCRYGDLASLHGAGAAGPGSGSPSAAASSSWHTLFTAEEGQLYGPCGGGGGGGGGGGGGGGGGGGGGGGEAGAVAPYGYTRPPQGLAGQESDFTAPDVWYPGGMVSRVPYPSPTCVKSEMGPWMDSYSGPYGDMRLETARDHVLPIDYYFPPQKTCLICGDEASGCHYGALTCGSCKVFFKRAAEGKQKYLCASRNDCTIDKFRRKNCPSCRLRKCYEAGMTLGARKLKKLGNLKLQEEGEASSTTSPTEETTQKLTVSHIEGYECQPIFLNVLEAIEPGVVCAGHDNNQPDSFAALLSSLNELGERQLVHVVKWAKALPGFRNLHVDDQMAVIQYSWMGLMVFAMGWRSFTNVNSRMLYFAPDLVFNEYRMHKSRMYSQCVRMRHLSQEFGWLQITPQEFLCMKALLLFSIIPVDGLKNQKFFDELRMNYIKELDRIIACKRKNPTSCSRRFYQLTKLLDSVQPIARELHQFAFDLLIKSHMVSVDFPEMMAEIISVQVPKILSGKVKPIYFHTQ

[2] = molecular target: T2, Androgen Receptor (AR) protein expression (Homo sapiens, UniProt P10275, H875Y, form not given); experiment: Western Blot analysis of AR protein expression in CWR22Rv1 cells; details: for IC50: read-out: Reduction of AR expression IC50 (μM) 24 h, Western blotting, 24 h post-incubation
T2 sequence (P10275 1-920 H875Y): T1 sequence (P10275 1-920 T878A) with H875Y, A878T

[3] = Stability in acidic condition (0.1 N HCl, 37° C.); type: physicochemical
Description: (§1) Also, at 24 hr where stability of JM49 was only 4%, while its derivative Compound 6 had improved to 79%. Similar improvements in stability (from 6-24 hr) were also observed in the conditions of rat plasma (Table 4) and human plasma (Table 5).

[4] = Stability in human plasma; type: in vitro ADME; details: 37° C.
Description: as §1

[5] = molecular target: T3, AR protein (Homo sapiens, UniProt P10275, T878A); experiment: Cycloheximide chasing assay of AR degradation in LNCaP cells; type: cell-based; details: in the presence of cycloheximide (CHX)
T3 sequence (P10275 1-920 T878A): T1 sequence (P10275 1-920 T878A)
Description: AR protein “degradation” in prostate cancer cells was measured by using cycloheximide (a protein synthesis inhibitor) chasing assay method. Briefly, LNCaP cells were incubated with testing ASC compound at the designated concentrations for 24 hours. Subsequently, cycloheximide was added to the cells at a concentration of 15 μg/ml to block new protein synthesis. After incubation, cells were harvested at designated time periods and the resultant change in AR protein levels were analysed using Western Blot analysis as described above.

[6] = tested on: CWR22Rv1 cells (human prostate cancer); experiment: MTT cell growth assay, CWR22Rv1 cells; type: cell-based; details: 5 days, read-out: Inhibition of Tumor cells growth IC50
Description: The MTT cell proliferation assay was applied in the present invention to detect the capability of compounds to suppress or inhibit prostate cancer cells growth. […] Briefly, 1×10^3 LNCaP or CWR22Rv1 cells suspended in complete medium were plated into each well of a 96-well Microtest III tissue culture plate (Falcon, N.J.). Two days later, the medium was replaced with RPMI-1640 medium containing 10% charcoal/dextran-deprived FBS (hormone-deprived fetal bovine serum). Testing compounds were added to the medium at indicated concentrations with or without 1 nM DHT and cells were cultured for 5 days in an incubator (at 37° C.). MTT substrate solution (5 mg/ml in PBS) in 1/10 of volume was added to the cells in each well at 2 hours before harvesting. After 2 hour incubation, the plates were centrifuged (10 min at 1,000 rpm) and the supernatant from each well was carefully removed. A 100 μl of lysis buffer (50% dimethyl formamide, 5% sodium dodecyl sulphate, 0.35 M acetic acid, and 50 mM HCl) was added to each well to lyse the cells and dissolved tetrazolium in each well. The relative quantity of enzyme activity from each well was measured based on absorbance read at a wavelength of 450 nm using a Bio-RAD BenchMark microplate reader. Data derived from the MTT assay were also verified by the actual cell count and cell morphology on a separate plate set up in parallel.
For inhibition of tumor cell growth, in vitro, cells were growth in the presence of testing compounds for 5 days, and the cell growth was assayed by standard MTT assay.

[7] = Stability in rat plasma; type: in vitro ADME; details: 37° C.
Description: as §1

Structure (SMILES): COc1ccc(/C=C/C(=O)C(C(=O)/C=C/c2ccc(OC)c(OC)c2)=C(O)/C=C/c2ccc(OC)c(OC)c2)cc1OC [ASC-JM4]
Reduction of AR expression (Western Blot, in words) [1]: capable of reducing endogenous AR expression
Reduction of AR expression (Western Blot, in words) [2]: capable of reducing endogenous AR expression

melting point: 55 to 56 °C
Structure (SMILES): CCOC(=O)CCC(=O)C=Cc1ccc(O)c(OC)c1 [Monomer 6, 6-(4-Hydroxy-3-methoxy-phenyl)-4-oxo-hex-5-enoic acid ethyl ester]

Concentration change (%) in acidic condition ([3]; 0 h): 100%
Concentration change (%) in acidic condition ([3]; 2 h): 100%
Concentration change (%) in acidic condition ([3]; 4 h): 99%
Concentration change (%) in acidic condition ([3]; 24 h): 79%
Concentration change (%) in acidic condition ([3]; 48 h): 56%
Concentration change (%) in human plasma ([4]; 0 h): 100%
Concentration change (%) in human plasma ([4]; 6 h): 91%
Concentration change (%) in human plasma ([4]; 24 h): 54%
Concentration change (%) in human plasma ([4]; 48 h): 27%
Structure (SMILES): CCN(CC)C(=O)CC(C)(C(=O)/C=C/c1ccc(OC)c(OC)c1)C(=O)/C=C/c1ccc(OC)c(OC)c1 [Compound 6]

AR protein degradation (Western Blot, in words) [5]: enhances AR protein degradation
Structure (SMILES): COc1ccc(/C=C/C(=O)C2CC(c3ccc(OC)c(OC)c3)(C(C(=O)/C=C/c3ccc(OC)c(OC)c3)C(=O)/C=C/c3ccc(OC)c(OC)c3)CC2=O)cc1OC (centres unmarked) [ASC-JM5]

melting point: 98 to 100 °C
Structure (SMILES): COc1ccc(/C=C/C(=O)C(F)(CC2CCC2)C(=O)/C=C/c2ccc(OC)c(OC)c2)cc1OC [Compound 14]

melting point: 128 to 129 °C
pIC50 ([6]; Homo sapiens, 120 h): 5.34
Structure (SMILES): COc1ccc(/C=C/C(=O)C(C)(CC2CCCCC2)C(=O)/C=C/c2ccc(OC)c(OC)c2)cc1OC [Compound 5]

melting point: 104 to 105 °C
Structure (SMILES): COc1ccc(/C=C/C(=O)C(F)(CC2CC2)C(=O)/C=C/c2ccc(OC)c(OC)c2)cc1OC [Compound 13]

Structure (SMILES): COc1ccc(C=CC(=O)C(CC2CCCC2)=C(O)C=Cc2ccc(OC)c(OC)c2)cc1OC [Compound 3]
IC50 [2]: 2.8 µM

Structure (SMILES): COc1ccc(C=CC(=O)C=C(O)C=Cc2ccc(OC)c(OC)c2)cc1OC [ASC-J9 ®, 1,7-Bis-(3,4-dimethoxy-phenyl)-5-hydroxy-hepta-1,4,6-trien-3-one, reference compound]
AR protein degradation (Western Blot, in words) [5]: enhances AR protein degradation

Structure (SMILES): CCCCC(F)(C(=O)C=Cc1ccc(OC)c(OC)c1)C(=O)C=Cc1ccc(OC)c(OC)c1 (centres unmarked) [Compound 19]
IC50 [2]: > 5 µM
pIC50 [6]: 5.33

pIC50 ([6]; Homo sapiens, 120 h): 5.62
Structure (SMILES): COc1ccc(/C=C/C(=O)C(C)(CC2CC2)C(=O)/C=C/c2ccc(OC)c(OC)c2)cc1OC [Compound 1]

Concentration change (%) in acidic condition ([3]; 0 h): 100%
Concentration change (%) in acidic condition ([3]; 1 h): 99%
Concentration change (%) in acidic condition ([3]; 2 h): 99%
Concentration change (%) in acidic condition ([3]; 4 h): 98%
Concentration change (%) in acidic condition ([3]; 24 h): 81%
Concentration change (%) in acidic condition ([3]; 48 h): 58%
Concentration change (%) in human plasma ([4]; 6 h): 95%
Concentration change (%) in human plasma ([4]; 24 h): 71%
Concentration change (%) in human plasma ([4]; 48 h): 49%
Structure (SMILES): COc1ccc(/C=C/C(=O)C(C)(CC(=O)N(C)C)C(=O)/C=C/c2ccc(OC)c(OC)c2)cc1OC [Compound 7]

melting point: 161 to 162 °C
Structure (SMILES): COc1ccc(/C=C/C(=O)C(C)(CC2CCC2)C(=O)/C=C/c2ccc(OC)c(OC)c2)cc1OC [Compound 2]

pIC50 ([6]; Homo sapiens, 120 h): < 5.12
Structure (SMILES): COc1ccc(/C=C/C(=O)C(F)(CC(=O)N(C)C)C(=O)/C=C/c2ccc(OC)c(OC)c2)cc1OC [Compound 18]

Concentration change (%) in rat plasma ([7]; 0 h): 100%
Concentration change (%) in rat plasma ([7]; 1 h): 93%
Concentration change (%) in rat plasma ([7]; 2 h): 88%
Concentration change (%) in rat plasma ([7]; 6 h): 73%
Concentration change (%) in rat plasma ([7]; 24 h): 27%
Concentration change (%) in rat plasma ([7]; 48 h): 7%
Concentration change (%) in acidic condition ([3]; 0 h): 100%
Concentration change (%) in acidic condition ([3]; 1 h): 14%
Concentration change (%) in acidic condition ([3]; 2 h): 8%
Concentration change (%) in acidic condition ([3]; 6 h): 0%
Concentration change (%) in acidic condition ([3]; 24 h): 0%
Concentration change (%) in human plasma ([4]; 0 h): 100%
Concentration change (%) in human plasma ([4]; 1 h): 88%
Concentration change (%) in human plasma ([4]; 2 h): 76%
Concentration change (%) in human plasma ([4]; 6 h): 45%
Concentration change (%) in human plasma ([4]; 24 h): 11%
Concentration change (%) in human plasma ([4]; 48 h): 1%
Structure (SMILES): COc1ccc(/C=C/C(=O)C(CC(=O)N(C)C)=C(O)/C=C/c2ccc(OC)c(OC)c2)cc1OC [JM77]
